Results taken from patent US9067894B1, “Compound, composition, and method of activating GIRK potassium channel and use of same for treating conditions of interest” (Vanderbilt University, priority 2013, dated 2015).
Entries after “also recorded” stand apart in the source; their conditions may differ.

Key:
[1] = molecular target: T1, GIRK2 (Homo sapiens, UniProt P48051); test: Thallium flux assay, HEK-293 cells expressing GIRK2 alone; format: cell-based; conditions: cell line GIRK2
T1 construct: expressed in transfected cells; host or cells: HEK-293
T1 sequence (P48051 1-423): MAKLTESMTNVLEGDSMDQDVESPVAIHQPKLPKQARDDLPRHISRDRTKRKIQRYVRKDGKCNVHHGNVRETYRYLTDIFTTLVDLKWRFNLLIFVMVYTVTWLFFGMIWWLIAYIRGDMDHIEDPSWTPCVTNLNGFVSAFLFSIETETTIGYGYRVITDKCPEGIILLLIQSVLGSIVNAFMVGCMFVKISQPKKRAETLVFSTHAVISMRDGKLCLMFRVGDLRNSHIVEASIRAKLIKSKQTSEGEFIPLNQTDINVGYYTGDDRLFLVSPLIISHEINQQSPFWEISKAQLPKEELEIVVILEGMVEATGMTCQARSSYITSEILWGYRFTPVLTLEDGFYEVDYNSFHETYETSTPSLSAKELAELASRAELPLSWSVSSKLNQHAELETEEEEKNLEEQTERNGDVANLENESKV
From the text: Cell Line Construction and Cell Culture. HEK-293 cells co-expressing human GIRK1/2 and rat mGlu8 were generated as previously described (Niswender et al., 2008). A HEK-293 cell line (ATCC, Manassas, Va.) expressing human GIRK1 and human GIRK2 was constructed by transfecting HEK-293 cells with GIRK1 and GIRK2 (Origene, Rockville, Md.) cloned into the pBudCE4.1 vector (Life Technologies, Carlsbad, Calif.) using FuGene 6 (Promega, Madison, Wis.) transfection reagent. Unless otherwise noted, other ion channel-expressing cells were prepared by transfecting HEK-293 cells with individual or combinations of subunits: GIRK1, pCMV6-A-BSD; GIRK2, pCMV6-A-puro; GIRK3, pCMV6-A-hygro; GIRK4, pCMV6-A-AC; Kv7.4, pIRESneo3. The Kir2.1 and hERG-expressing cell lines were made by transfecting T-REx-293 cells (Life Technologies, Carlsbad, Calif.) with Kir2.1 and Kv11.1, respectively, cloned into pcDNA5TO. Monoclonal cell lines were produced by limiting-dilution cloning of antibiotic-resistant cells and functional selection using the thallium flux assay described below. Unless otherwise noted, cells were maintained in Minimal Essential Medium, Alpha Medium (Mediatech, Manassas, Va.) supplemented with 10% fetal bovine serum (Sigma-Aldrich, Saint Louis, Mo.) and GlutaGro (Mediatech, Manassas, Va.), referred to henceforth as cell culture medium. […]

[2] = molecular target: T2, Andreogen (Rattus norvegicus, UniProt P15207); test: Radioligand displacement (Ricerca); format: binding
T2 construct: Ricerca

[3] = molecular target: T3, Dopamine D3 (Homo sapiens, UniProt P35462); test: Radioligand displacement (Ricerca); format: binding
T3 construct: Ricerca

[4] = molecular target: T4, Glucocorticoid (Homo sapiens, UniProt P04150); test: Radioligand displacement (Ricerca); format: binding
T4 construct: Ricerca

[5] = tested on: Imidazoline, I2; test: Radioligand displacement (Ricerca); format: binding, rat; conditions: 10 μM
[6] = tested on: Nicotinic acetylcholine; test: Radioligand displacement (Ricerca), first nicotinic entry; format: binding, human; conditions: 10 μM; first Nicotinic acetylcholine line
[7] = tested on: Potassium channel KATP; test: Radioligand displacement (Ricerca); format: binding, human; conditions: 10 μM

T4 sequence (P04150 whole entry): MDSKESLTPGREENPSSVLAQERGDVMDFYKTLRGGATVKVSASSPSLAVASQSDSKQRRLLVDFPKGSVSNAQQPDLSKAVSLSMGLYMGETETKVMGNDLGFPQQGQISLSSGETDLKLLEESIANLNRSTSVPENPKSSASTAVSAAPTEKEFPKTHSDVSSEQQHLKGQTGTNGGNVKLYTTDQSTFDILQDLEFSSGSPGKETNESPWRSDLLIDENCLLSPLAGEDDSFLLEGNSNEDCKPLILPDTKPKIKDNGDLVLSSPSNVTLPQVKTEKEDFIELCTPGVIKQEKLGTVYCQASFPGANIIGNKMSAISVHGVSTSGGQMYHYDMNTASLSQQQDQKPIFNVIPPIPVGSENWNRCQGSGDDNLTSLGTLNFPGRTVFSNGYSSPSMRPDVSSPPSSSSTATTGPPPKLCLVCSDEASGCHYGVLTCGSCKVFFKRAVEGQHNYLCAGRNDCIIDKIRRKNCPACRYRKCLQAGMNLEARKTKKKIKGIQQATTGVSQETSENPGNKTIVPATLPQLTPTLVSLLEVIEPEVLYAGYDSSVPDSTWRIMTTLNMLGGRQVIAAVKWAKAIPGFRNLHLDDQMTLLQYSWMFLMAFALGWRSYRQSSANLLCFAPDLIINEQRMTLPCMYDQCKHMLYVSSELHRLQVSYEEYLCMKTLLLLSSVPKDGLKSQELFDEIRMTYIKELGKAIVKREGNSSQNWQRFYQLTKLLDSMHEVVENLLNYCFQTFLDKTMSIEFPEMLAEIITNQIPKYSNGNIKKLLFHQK
T2 sequence (P15207 whole entry S389L): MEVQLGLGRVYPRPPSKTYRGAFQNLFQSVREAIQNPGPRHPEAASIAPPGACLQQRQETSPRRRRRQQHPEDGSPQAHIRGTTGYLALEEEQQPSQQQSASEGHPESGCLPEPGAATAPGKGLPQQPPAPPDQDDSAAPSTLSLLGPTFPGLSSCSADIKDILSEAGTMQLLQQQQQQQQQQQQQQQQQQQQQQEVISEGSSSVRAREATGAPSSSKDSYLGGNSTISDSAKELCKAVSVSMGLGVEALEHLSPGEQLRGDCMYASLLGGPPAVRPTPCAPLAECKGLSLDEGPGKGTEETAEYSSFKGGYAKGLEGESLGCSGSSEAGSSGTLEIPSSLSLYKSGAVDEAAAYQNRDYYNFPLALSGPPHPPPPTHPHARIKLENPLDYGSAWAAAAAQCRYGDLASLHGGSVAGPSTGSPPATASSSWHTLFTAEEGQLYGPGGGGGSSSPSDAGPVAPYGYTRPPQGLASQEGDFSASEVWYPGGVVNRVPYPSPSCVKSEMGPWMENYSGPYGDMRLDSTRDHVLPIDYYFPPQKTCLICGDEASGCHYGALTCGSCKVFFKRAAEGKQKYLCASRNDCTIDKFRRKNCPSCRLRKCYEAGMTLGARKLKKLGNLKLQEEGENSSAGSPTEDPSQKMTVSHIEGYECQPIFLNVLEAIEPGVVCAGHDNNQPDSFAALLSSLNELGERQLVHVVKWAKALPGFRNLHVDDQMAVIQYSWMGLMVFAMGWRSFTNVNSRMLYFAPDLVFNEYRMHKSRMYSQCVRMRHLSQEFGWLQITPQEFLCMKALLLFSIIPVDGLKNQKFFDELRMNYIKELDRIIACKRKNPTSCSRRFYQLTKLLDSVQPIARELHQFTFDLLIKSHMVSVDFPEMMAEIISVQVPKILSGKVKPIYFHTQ
T3 sequence (P35462 whole entry): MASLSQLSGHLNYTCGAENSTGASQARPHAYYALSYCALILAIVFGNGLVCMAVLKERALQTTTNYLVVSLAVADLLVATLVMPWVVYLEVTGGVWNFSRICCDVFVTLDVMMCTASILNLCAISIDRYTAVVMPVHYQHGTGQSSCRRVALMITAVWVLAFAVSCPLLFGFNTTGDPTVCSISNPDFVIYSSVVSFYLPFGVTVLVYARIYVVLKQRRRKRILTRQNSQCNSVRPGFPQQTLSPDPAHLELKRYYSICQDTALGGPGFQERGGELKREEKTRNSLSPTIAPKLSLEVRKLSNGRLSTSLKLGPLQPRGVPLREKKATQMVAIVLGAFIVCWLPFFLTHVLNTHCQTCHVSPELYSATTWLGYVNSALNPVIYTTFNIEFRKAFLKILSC

## Cc1cc(NC(=O)Nc2ccc(F)c(F)c2)n(-c2ccccc2)n1 [VU0456810, 1-(3,4-difluorophenyl)-3-(3-methyl-1-phenyl-1H-pyrazol-5-yl)urea]
[1]
  EC50 Thallium Flux: complete inability to modulate; also recorded: Inactive
[1]; listed as 2
  EC50 Thallium Flux: inactive
[2]
  inhibition at 10 µM: 0%
[3]
  inhibition at 10 µM: 2%
[4]
  inhibition at 10 µM: 2%
[5]
  % Inhibition: 20%
[6]
  % Inhibition: 0%
[7]
  % Inhibition: 2%
